What was measured:
[1] = tested on: NadD; experiment: NadD inhibition, enzyme species not stated at the place; type: biochemical; settings: 1_02_1 compared with 1_13 and 1_15 (Fig. 4A)
[2] = biological target: baNadD (Bacillus anthracis, UniProt C3L5T6); type: biochemical
Sequence of baNadD (C3L5T6 whole entry, looked up): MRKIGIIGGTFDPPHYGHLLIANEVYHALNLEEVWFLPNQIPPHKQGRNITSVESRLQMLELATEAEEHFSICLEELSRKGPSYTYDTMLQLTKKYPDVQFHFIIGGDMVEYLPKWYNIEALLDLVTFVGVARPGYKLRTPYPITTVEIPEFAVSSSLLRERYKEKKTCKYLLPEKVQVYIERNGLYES

Compound	improvement in activity over monomeric precursors 1_13 and 1_15 [1]	inhibition of baNadD [2]
O=C(CCC(=O)Nc1ccccc1Cl)N/N=C/c1ccc(/C=N/NC(=O)CCC(=O)Nc2ccccc2Cl)cc1 [Compound 1_02_1, N-(2-Chloro-phenyl)-3-(4-{[3-(2-chloro-phenylcarbamoyl)-propionyl]-hydrazonomethyl}-benzylidene-hydrazinocarbonyl)-propionamide]	more than 10 fold	–
{N'-(4-{Carboxymethyl-[3-(2-chloro-phenylcarbamoyl)-propionyl]-hydrazonomethyl}-benzylidene)-N-[3-(2-chloro-phenylcarbamoyl)-propionyl]-hydrazino}-acetic acid [Compound 1_02_2]	–	did not inhibit

— PMC2915899 (Journal of medicinal chemistry, 2010)
